These results are taken from US11384062B2 (CombiPhos Catalysts, Inc., priority 2017, dated 2022).

Read-outs that look alike come from different tables or passages of the source.

For data set [1], the system named is BRCA-1 deficient cancer xenograft. To be noted: cited from earlier work.
The test system of data set [2] is cancer cells with mutant BRCA-1 and BRCA-2. As to conditions: read-out: CC50, inhibition of proliferation; cited from earlier work.
Data set [3] relates to CAPAN-1 pancreatic cancer cell xenograft. As to conditions: 80 mg/kg qd, oral dosing, for two, three, or four weeks; cited from earlier work.
A further data set relates to recurrent ovarian cancer. To be noted: cited from earlier work.
In another data set the test system is PARP. To be noted: read-out: EC50, inhibition of PARP activity; whole cell assay; cited from earlier work.
Data set [4] concerns human tumor xenografts, p53 wild type and p53 mutant. To be noted: variety of human tumor xenografts; cited from earlier work. (In general: In xenograft studies the graft and the host belong to different species.)
The conditions of data set [5]: dosed IV to bile duct cannulated rats; cited from earlier work.
A short description of another data set: in vitro. As to conditions: for CLint scaled at 0.5 µM: pH 7.4, Clint; for half-life at 0.5 µM: pH 7.4, T1/2. How it is done: Buffer solutions were prepared as follows: • a. Buffer A: 0.1 M monobasic potassium phosphate buffer containing 1.0 mM EDTA. • b. Buffer B: 0.1 M dibasic potassium phosphate buffer containing 1.0 mM EDTA. • c. Buffer C: 0.1 M potassium phosphate buffer containing 1.0 mM EDTA was adjusted to pH 7.4 by titrating 700 mL of Buffer B with Buffer A while monitoring with a pH meter. • 2. An NADPH stock solution (6 mM) was prepared by dissolving NADPH into Buffer C. • 3. Spiking solutions were prepared for the reference compound (ketanserin) and the test compounds as follows: • a. A 500 μM spiking solution of the reference compound (ketanserin) was generated by adding 10 μL of a 10 mM stock solution of ketanserin in DMSO into 190 μL acetonitrile. A 1.5 μM spiking solution in microsomes (0.75 mg/mL) was generated by adding 1.5 μL of the 500 μM spiking solution and 18.75 μL of 20 mg/mL rat liver microsomes into 479.75 μL of Buffer C while cooling with ice. • b. […] A 0.75 μM spiking solution in microsomes (0.75 mg/mL) was generated by adding 1.5 μL of the 250 μM spiking solution and 18.75 μL of 20 mg/mL rat liver microsomes into 479.75 μL of Buffer C while cooling with ice. • 4. 30 μL of 1.5 μM spiking solution containing 0.75 mg/mL microsomes solution was dispensed into assay plates designated for different time points (0 min, 5 min, 15 min, 30 min, and 45 min; or 0 min, 15 min, 30 min, 45 min, and 60 min as shown in Tables 1-5 below) while cooling with ice. • 5. For the 0 min time point assay plate, 135 μL of ACN containing IS followed immediately by 15 μL of the 6 mM NADPH stock solution were added to the wells of the 0 min assay plate. • 6. All assay plates other than the 0 min assay plate were pre-incubated at 37° C. for 5 min, and then 15 μL of the 6 mM NADPH stock solution was added to the wells of the assay plates to start the reaction and timing. At the appropriate time (5 min, 15 min, 30 min, 45 min, or 60 min), 135 μL of ACN containing IS was added to the wells of the corresponding assay plates, respectively, to stop the reaction. • 7. After quenching, the plates were shaken in a vibrator (IKA, MTS 2/4) for 10 min (600 rpm/min) and then centrifuged at 5594 g for 15 min (Thermo Multifuge×3R). • 8. After centrifugation, 50 μL of the supernatant from each well was transferred into a 96-well sample plate containing 50 μL of ultrapure water (Millipore, ZMQS50F01) for LC/MS analysis.

[6] abbreviates: rat, microsomes, 0 h, 0.5 µM, pH 7.4.
Where [7] appears, read: rat, microsomes, 0.25 h, 0.5 µM, pH 7.4.
The mark [8] stands for this setting: rat, microsomes, 0.5 h, 0.5 µM, pH 7.4.
Where [9] appears, read: rat, microsomes, 0.75 h, 0.5 µM, pH 7.4.
Where [10] appears, read: rat, microsomes, 1 h, 0.5 µM, pH 7.4.
[11] abbreviates: rat, microsomes, 0.5 µM, pH 7.4.
Setting [12] is: rat liver microsomes, Table 2 (Example 17).
The mark [13] stands for this setting: rat liver microsomes, Table 1 (Example 16).
[14] abbreviates: rat liver microsomes, Table 3 (Example 18).
Where [15] appears, read: rat liver microsomes, Table 5 (Example 20).

With `NC(=O)c1cccc2cn(-c3ccc([C@@H]4CCCNC4)cc3)nc12` [niraparib, (S)-2-(4-(piperidin-3-yl)phenyl)-2H-indazole-7-carboxamide], the tumor growth entry in data set [1] (80 mg/kg qd, oral dosing, after one or two weeks of treatment) is “significant inhibition of tumor growth”; in data set [1] (after four week treatment), “complete and sustained regression”; in data set [1] (continuous daily dosing for three or four weeks), “tumor shrinkage”. In addition, in data set [2], the CC50 is 10 to 100 nM. The tumor growth inhibition in data set [3] is approximately 60%. Also, the “median PFS” value is given as 21.0 months in the data set with recurrent ovarian cancer (germline BRCA mutant patients); 12.9 months in the data set with recurrent ovarian cancer (non-gBRCAmut cohort, HRD-positive tumors); 9.3 months in the data set on recurrent ovarian cancer (overall non-germline BRCA mutant cohort). Moreover, the discontinuation rate in the data set with recurrent ovarian cancer (patients) is 14.7%. Besides, the “treatment-emergent grade 3/4 adverse event: anemia” value in the data set on recurrent ovarian cancer (patients) is 24.8%. The “treatment-emergent grade 3/4 adverse event: neutropenia” value in the data set with recurrent ovarian cancer (patients) was 11.2%. The “treatment-emergent grade 3/4 adverse event: thrombocytopenia” value with recurrent ovarian cancer (patients) is reported as 28.3%. Further, the EC50 in the data set with PARP is […]. The “effect on radiation response” value in data set [4] was “strongly enhances the effect of radiation”.

Regarding `NC(=O)c1cccc2cn(-c3ccc([C@@H]4CCCNC4)cc3)nc12` [[^14C]-niraparib], the “recovered radioactivity as the parent drug” value in data set [5] is on record as 45%.

As to `[2H]c1c([2H])c(C2([2H])CCCNC2[2H])c([2H])c([2H])c1-n1cc2cccc(C(N)=O)c2n1` (stereo not drawn) [Example 9, 2-(4-(piperidin-3-yl-2,3-d2)phenyl-2,3,5,6-d4)-2H-indazole-7-carboxamide], the “increase in rat liver microsome metabolic stability” value in “in vitro” (rat, 0.5 µM, pH 7.4) worked out at 64%. Besides, the “Percent Remaining (%) 0 min” value in “in vitro” (setting [6]) turned out to be 100.00%. For the same molecule, the “Percent Remaining (%) 15 min” value in “in vitro” (setting [7]) turned out to be 98.91%. In “in vitro” (setting [8]), the “Percent Remaining (%) 30 min” value is recorded as 83.70%. In addition, the “Percent Remaining (%) 45 min” value in “in vitro” (setting [9]) is given as 79.62%. For the same molecule, the “Percent Remaining (%) 60 min” value in the data set “in vitro” (setting [10]) turned out to be 75.27%. For the same molecule, in the data set “in vitro” (rat, microsomes), the CLint scaled at 0.5 µM worked out at 18.8 mL/min/kg and the half-life at 0.5 µM stood at 2.21 h.

On to `[2H]c1c([2H])c(-n2cc3cccc(C(N)=O)c3n2)c([2H])c([2H])c1C1C([2H])NC([2H])C([2H])C1[2H]` (stereo not drawn) [Example 6], for which, in “in vitro” (setting [6]), the “Percent Remaining (%) 0 min” value is given as 100%. For the same molecule, the “Percent Remaining (%) 5 min” value in “in vitro” (setting [11]) amounted to 112%. Also, the “Percent Remaining (%) 15 min” value in “in vitro” (setting [7]) came to 100%. The “Percent Remaining (%) 30 min” value in “in vitro” (setting [8]) turned out to be 88.27%. Besides, in “in vitro” (setting [9]), the “Percent Remaining (%) 45 min” value was determined as 85.02%. In “in vitro” (rat, microsomes), this molecule came in with a CLint scaled at 0.5 µM of 18.8 mL/min/kg and a half-life at 0.5 µM of 2.2 h.

Regarding `[2H]c1c([2H])c(C2([2H])C([2H])([2H])NC([2H])([2H])C([2H])([2H])C2([2H])[2H])c([2H])c([2H])c1-n1cc2cccc(C(N)=O)c2n1` (stereo not drawn) [Example 2, 2-(4-(piperidin-3-yl-2,2,3,4,4,5,5,6,6-d9)phenyl-2,3,5,6-d4)-2H-indazole-7-carboxamide], in “in vitro” (setting [6]), the “Percent Remaining (%) 0 min” value turned out to be 100.00%. Besides, the “Percent Remaining (%) 15 min” value in “in vitro” (setting [7]) was 93.04%. Moreover, in the data set “in vitro” (setting [8]), the “Percent Remaining (%) 30 min” value is 80.95%. Also, the “Percent Remaining (%) 45 min” value in “in vitro” (setting [9]) turned out to be 75.60%. Moreover, the “Percent Remaining (%) 60 min” value in “in vitro” (setting [10]) is listed as 69.05%. In “in vitro” (rat, microsomes), this molecule returned a CLint scaled at 0.5 µM of 22.7 mL/min/kg and a half-life at 0.5 µM of 1.83 h.

Regarding `NC(=O)c1cccc2cn(-c3ccc([C@@H]4CCCNC4)cc3)nc12` (racemic) [racemic niraparib], the “Percent Remaining (%) 0 min” value is 100.00% in “in vitro” (rat liver microsomes, 0 min, Table 1 (Example 16)); 100% in “in vitro” (rat liver microsomes, 0 min, Table 2 (Example 17)); 100.00% in “in vitro” (rat liver microsomes, 0 min, Table 3 (Example 18)); 100.00% in “in vitro” (rat liver microsomes, 0 min, Table 5 (Example 20)). Also, the “Percent Remaining (%) 5 min” value in the data set “in vitro” (setting [12]) turned out to be 116.67%. In addition, the “Percent Remaining (%) 15 min” value in the data set “in vitro” (rat liver microsomes, 15 min, Table 1 (Example 16)) is reported as 89.16%; in “in vitro” (rat liver microsomes, 15 min, Table 2 (Example 17)), 95.83%; in the data set “in vitro” (rat liver microsomes, 15 min, Table 3 (Example 18)), 92.47%; in the data set “in vitro” (rat liver microsomes, 15 min, Table 5 (Example 20)) it was 77.23%. Besides, the “Percent Remaining (%) 30 min” value in the data set “in vitro” (rat liver microsomes, 30 min, Table 1 (Example 16)) was determined as 75.88%; in the data set “in vitro” (rat liver microsomes, 30 min, Table 2 (Example 17)), 83.18%; in the data set “in vitro” (rat liver microsomes, 30 min, Table 3 (Example 18)) it was 65.45%; in “in vitro” (rat liver microsomes, 30 min, Table 5 (Example 20)), 65.45%. Besides, the “Percent Remaining (%) 45 min” value in “in vitro” (rat liver microsomes, 45 min, Table 1 (Example 16)) turned out to be 69.11%; in “in vitro” (rat liver microsomes, 45 min, Table 2 (Example 17)), 81.48%; in “in vitro” (rat liver microsomes, 45 min, Table 3 (Example 18)), 51.57%; in “in vitro” (rat liver microsomes, 45 min, Table 5 (Example 20)) it was 53.43%. Also, the “Percent Remaining (%) 60 min” value in the data set “in vitro” (rat liver microsomes, 60 min, Table 1 (Example 16)) was 60.43%; in “in vitro” (rat liver microsomes, 60 min, Table 3 (Example 18)), 50.17%; in “in vitro” (rat liver microsomes, 60 min, Table 5 (Example 20)), 42.23%. Also, the Clint in the data set “in vitro” (setting [13]) stood at 30.15 mL/min/kg; in the data set “in vitro” (setting [12]), 24.43 mL/min/kg; in the data set “in vitro” (setting [14]) it was 46.91 mL/min/kg; in the data set “in vitro” (setting [15]) it was 50.00 mL/min/kg. In addition, the T1/2 worked out at 1.373 h in “in vitro” (setting [13]), 1.6945 h in the data set “in vitro” (setting [12]), 0.8825 h in “in vitro” (setting [14]) and 0.828 h in the data set “in vitro” (setting [15]).

Take `[2H]C1NC([2H])C(c2ccc(-n3cc4cccc(C(N)=O)c4n3)cc2)C([2H])C1[2H]` (stereo not drawn) [Example 7, 2-(4-(piperidin-3-yl-2,4,5,6-d4)phenyl)-2H-indazole-7-carboxamide]: the “Percent Remaining (%) 0 min” value in the data set “in vitro” (setting [6]) amounted to 100%. For the same molecule, the “Percent Remaining (%) 5 min” value in “in vitro” (setting [11]) is 112.62%. The “Percent Remaining (%) 15 min” value in the data set “in vitro” (setting [7]) is 94.47%. Also, the “Percent Remaining (%) 30 min” value in “in vitro” (setting [8]) is on record as 84.9%. Also, in the data set “in vitro” (setting [9]), the “Percent Remaining (%) 45 min” value is listed as 83.06%. In “in vitro” (rat, microsomes), the CLint scaled at 0.5 µM turned out to be 21.1 mL/min/kg and the half-life at 0.5 µM came to 1.96 h.

The EC50 is the midpoint of the concentration-response curve. As usually defined, the CLint scaled is a measure of how fast metabolising enzymes remove a compound, apart from limits set by blood flow. What is called half-life is the time needed for the level to fall by half in the phase considered.
